Data from patent publication US20020115642A1, “Beta-lactam antibiotics” (priority 2000, published 2002).
In brackets after ≈: the same amount, converted by molar mass. Where two headings read alike, the source gives them in different places.

Assays:
Test in all cases: Susceptibility testing (MIC, modified NCCLS method)
E. coli N = assay type: cell-based, Escherichia coli; conditions: E. coli (N)
Protocol: (§1) The NCCLS (National Committee for Clinical Laboratory Standards) method to determine MIC's of antimicrobial compounds was modified for high-throughput screening. All stocks of tested compounds were prepared in either water or in dimethylsulfoxide (DMSO), depending on the solubility. […] Briefly 20 2-fold serial dilutions of testing compounds from the highest concentration were made in a 384-well microtiter plate. Each well was inoculated with testing bacteria in broth to a final concentration of approximately 1-1.5×10^6 cells/ml. Bacterial growth was determined by the increase of optical density at 600 nm using a microplate reader (Tecan SpectraFluor Plus).

E. coli/TEM-1 = assay type: cell-based, Escherichia coli
Protocol: as §1

P. aeruginosa = assay type: cell-based, Pseudomonas aeruginosa
Protocol: as §1

K. pneumoniae = assay type: cell-based, Klebsiella pneumoniae
Protocol: as §1

E. faecalis = assay type: cell-based, Enterococcus faecalis
Protocol: as §1

E. aerogenes = assay type: cell-based, Enterobacter aerogenes; conditions: E. aerogenes ATCC 35028
Protocol: as §1

Staphylococcus aureus = assay type: cell-based
Protocol: as §1

E. cloacae = assay type: cell-based, Enterobacter cloacae; conditions: E. cloacae ATCC 23355
Protocol: as §1

S. epidermidis = assay type: cell-based, Staphylococcus epidermidis; conditions: Staphylococcus epidermidis, S. epidermidis (5); read-out: GM* MIC (geometric mean)
Protocol: as §1

O=C(COc1ccc(O)cc1)NC1C(=O)N2C(C(=O)O)=C(COc3cc(Cl)ccc3Oc3ccc(Cl)cc3Cl)CS[C@H]12 (stereo partly shown) [Compound 40, 3-(2-(2,4-dichlorophenoxy)-5-chlorophenoxy)methyl-7-[2-(4-hydroxyphenoxy)acetamido]-3-cephem-4-carboxylic acid]
MIC (E. coli N; Escherichia coli, read-out: MIC): 0.5 µg/mL (≈ 0.767 µM)
MIC (E. coli/TEM-1; Escherichia coli): 0.063 µg/mL (≈ 0.0966 µM)
MIC (P. aeruginosa; Pseudomonas aeruginosa, ATCC21726, P. aeruginosa ATCC 21726, read-out: MIC): > 32 µg/mL
MIC (P. aeruginosa; Pseudomonas aeruginosa, ATCC29872, P. aeruginosa ATCC 29872, read-out: MIC): > 32 µg/mL
MIC (K. pneumoniae; Klebsiella pneumoniae, ATCC51503, K. pneumoniae ATCC 51503, read-out: MIC): 16 µg/mL (≈ 24.5 µM)
MIC (K. pneumoniae; Klebsiella pneumoniae, ATCC700721, K. pneumoniae ATCC 700721, read-out: MIC): 2 µg/mL (≈ 3.07 µM)
MIC (E. faecalis; Enterococcus faecalis, ATCC49757, E. faecalis ATCC 49757, read-out: MIC): 16 µg/mL (≈ 24.5 µM)
MIC (E. faecalis; Enterococcus faecalis, ATCC700802, E. faecalis ATCC 700802, read-out: MIC): 16 µg/mL (≈ 24.5 µM)
MIC (E. aerogenes; Klebsiella aerogenes, ATCC35028, read-out: MIC): 32 µg/mL (≈ 49.1 µM)
MIC (Staphylococcus aureus; Staphylococcus aureus, ATCC11632, S. aureus ATCC 11632, read-out: MIC): 16 µg/mL (≈ 24.5 µM)
MIC (Staphylococcus aureus; Staphylococcus aureus, ATCC33591, S. aureus ATCC 33591, read-out: MIC): 0.125 µg/mL (≈ 0.192 µM)
MIC (Staphylococcus aureus; Staphylococcus aureus, ATCC33594, S. aureus ATCC 33594, read-out: MIC): 0.063 µg/mL (≈ 0.0966 µM)
MIC (Staphylococcus aureus; Staphylococcus aureus, ATCC700260, S. aureus ATCC 700260, read-out: MIC): 4 µg/mL (≈ 6.14 µM)
MIC (Staphylococcus aureus; Staphylococcus aureus, ATCC700699, S. aureus ATCC 700699, read-out: MIC): 32 µg/mL (≈ 49.1 µM)
MIC (E. cloacae; Enterobacter cloacae, ATCC23355, read-out: MIC): 16 µg/mL (≈ 24.5 µM)

O=C(Cn1cnnn1)Nc1ncc(CC(=O)NC2C(=O)N3C(C(=O)O)=C(COc4cc(Cl)ccc4Oc4ccc(Cl)cc4Cl)CS[C@H]23)s1 (stereo partly shown) [Compound 43]
MIC (E. coli N): 2 µg/mL (≈ 2.66 µM)
MIC (E. coli/TEM-1; E. coli/Tem-1): 0.25 µg/mL (≈ 0.332 µM)
MIC (P. aeruginosa; P. aeruginosa ATCC 21726): >32 µg/mL
MIC (P. aeruginosa; P. aeruginosa ATCC 29872): >32 µg/mL
MIC (K. pneumoniae; K. pneumoniae ATCC 51503): 32 µg/mL (≈ 42.6 µM)
MIC (K. pneumoniae; K. pneumoniae ATCC 700721): 4 µg/mL (≈ 5.32 µM)
MIC (E. faecalis; E. faecalis ATCC 49757): 32 µg/mL (≈ 42.6 µM)
MIC (E. faecalis; E. faecalis ATCC 700802): 32 µg/mL (≈ 42.6 µM)
MIC (E. aerogenes): 32 µg/mL (≈ 42.6 µM)
MIC (Staphylococcus aureus; S. aureus ATCC 11632): 32 µg/mL (≈ 42.6 µM)
MIC (Staphylococcus aureus; S. aureus ATCC 33591): 0.125 µg/mL (≈ 0.166 µM)
MIC (Staphylococcus aureus; S. aureus ATCC 33594): 0.063 µg/mL (≈ 0.0838 µM)
MIC (Staphylococcus aureus; S. aureus ATCC 700260): 8 µg/mL (≈ 10.6 µM)
MIC (Staphylococcus aureus; S. aureus ATCC 700699): 32 µg/mL (≈ 42.6 µM)
MIC (E. cloacae): 32 µg/mL (≈ 42.6 µM)

Cc1nnc(SCC(=O)Nc2ncc(CC(=O)NC3C(=O)N4C(C(=O)O)=C(COc5cc(Cl)ccc5Oc5ccc(Cl)cc5Cl)CSC34)s2)s1 (stereo not shown) [Compound 47]
MIC (E. coli N): 2 µg/mL (≈ 2.46 µM)
MIC (E. coli/TEM-1; E. coli/Tem-1): 0.25 µg/mL (≈ 0.307 µM)
MIC (P. aeruginosa; P. aeruginosa ATCC 21726): >32 µg/mL
MIC (P. aeruginosa; P. aeruginosa ATCC 29872): >32 µg/mL
MIC (K. pneumoniae; K. pneumoniae ATCC 51503): >32 µg/mL
MIC (K. pneumoniae; K. pneumoniae ATCC 700721): 8 µg/mL (≈ 9.83 µM)
MIC (E. faecalis; E. faecalis ATCC 49757): >32 µg/mL
MIC (E. faecalis; E. faecalis ATCC 700802): >32 µg/mL
MIC (E. aerogenes): >32 µg/mL
MIC (Staphylococcus aureus; S. aureus ATCC 11632): >32 µg/mL
MIC (Staphylococcus aureus; S. aureus ATCC 33591): 0.125 µg/mL (≈ 0.154 µM)
MIC (Staphylococcus aureus; S. aureus ATCC 33594): 0.063 µg/mL (≈ 0.0774 µM)
MIC (Staphylococcus aureus; S. aureus ATCC 700260): 8 µg/mL (≈ 9.83 µM)
MIC (Staphylococcus aureus; S. aureus ATCC 700699): >32 µg/mL
MIC (E. cloacae): >32 µg/mL

Cc1onc(-c2ccccc2)c1C(=O)N[C@@H]1C(=O)N2[C@@H]1SC(C)(C)[C@@H]2C(=O)O [Oxacillin, reference compound]
MIC (S. epidermidis): > 7.87 µg/mL
MIC range (E. faecalis; E. faecalis (7)): >11 µg/mL
MIC (E. faecalis; Enterococcus faecalis, E. faecalis (7), read-out: GM* MIC (geometric mean)): > 11 µg/mL
MIC (Staphylococcus aureus; Staphylococcus aureus, ATCC11632, ATCC 11632, methicillin-sensitive, β-lactamase Neg./Pos., read-out: MIC): 0.25 µg/mL (≈ 0.623 µM)
MIC (Staphylococcus aureus; Staphylococcus aureus, ATCC13301, ATCC 13301, methicillin-sensitive, β-lactamase Positive, read-out: MIC): 0.25 µg/mL (≈ 0.623 µM)
MIC (Staphylococcus aureus; Staphylococcus aureus, ATCC14154, ATCC 14154, methicillin-sensitive, β-lactamase Positive, read-out: MIC): 0.5 µg/mL (≈ 1.25 µM)
MIC (Staphylococcus aureus; Staphylococcus aureus, ATCC33591, ATCC 33591, methicillin-resistant, β-lactamase Positive, read-out: MIC): 8 µg/mL (≈ 19.9 µM)
MIC (Staphylococcus aureus; Staphylococcus aureus, ATCC33592, ATCC 33592, methicillin-sensitive, β-lactamase Positive, read-out: MIC): 2 µg/mL (≈ 4.98 µM)
MIC (Staphylococcus aureus; Staphylococcus aureus, ATCC33593, ATCC 33593, methicillin-resistant, β-lactamase Positive, read-out: MIC): 8 µg/mL (≈ 19.9 µM)
MIC (Staphylococcus aureus; Staphylococcus aureus, ATCC33594, ATCC 33594, methicillin-sensitive, β-lactamase Positive, read-out: MIC): 0.25 µg/mL (≈ 0.623 µM)
MIC (Staphylococcus aureus; Staphylococcus aureus, ATCC43300, ATCC 43300, methicillin-sensitive, β-lactamase Neg./Pos., read-out: MIC): 2 µg/mL (≈ 4.98 µM)
MIC (Staphylococcus aureus; Staphylococcus aureus, ATCC700260, ATCC 700260, methicillin-sensitive, β-lactamase Positive, read-out: MIC): 0.5 µg/mL (≈ 1.25 µM)
MIC (Staphylococcus aureus; Staphylococcus aureus, ATCC700698, ATCC 700698, methicillin-resistant, β-lactamase Negative, read-out: MIC): > 32 µg/mL
MIC (Staphylococcus aureus; Staphylococcus aureus, ATCC700699, ATCC 700699, methicillin-resistant, β-lactamase Negative, read-out: MIC): > 32 µg/mL
MIC (Staphylococcus aureus; Staphylococcus aureus, ATCC700787, ATCC 700787, methicillin-resistant, β-lactamase Positive, read-out: MIC): > 32 µg/mL
MIC (Staphylococcus aureus; Staphylococcus aureus, ATCC700788, ATCC 700788, methicillin-resistant, β-lactamase Positive, read-out: MIC): > 32 µg/mL
MIC (Staphylococcus aureus; Staphylococcus aureus, ATCC700789, ATCC 700789, methicillin-resistant, β-lactamase Positive, read-out: MIC): 32 µg/mL (≈ 79.7 µM)
MIC (Staphylococcus aureus; Staphylococcus aureus, MRSA, MRSA tested (7), read-out: Geometric mean of MIC): > 21.5 µg/mL
MIC (Staphylococcus aureus; Staphylococcus aureus, MSSA, MSSA tested (7), read-out: Geometric mean of MIC): 0.55 µg/mL (≈ 1.37 µM)
MIC (Staphylococcus aureus; Staphylococcus aureus, S. aureus (14), read-out: Geometric mean of MIC): > 3.45 µg/mL
MIC (Staphylococcus aureus; Staphylococcus aureus, S. aureus β-lactamase negative (2), read-out: Geometric mean of MIC): > 32 µg/mL
MIC (Staphylococcus aureus; Staphylococcus aureus, S. aureus β-lactamase positive (12), read-out: Geometric mean of MIC): 2.34 µg/mL (≈ 5.83 µM)
